Source: US8232269B2, “Amide compounds useful in therapy” (Pfizer Inc., priority 2008, dated 2012)

Molecular target: T1, Progesterone Receptor (PR) (Homo sapiens, UniProt P06401)
T1 construct: endogenous in cells; host or cells: T47D human breast mammary carcinoma cells
T1 sequence (P06401 1-933): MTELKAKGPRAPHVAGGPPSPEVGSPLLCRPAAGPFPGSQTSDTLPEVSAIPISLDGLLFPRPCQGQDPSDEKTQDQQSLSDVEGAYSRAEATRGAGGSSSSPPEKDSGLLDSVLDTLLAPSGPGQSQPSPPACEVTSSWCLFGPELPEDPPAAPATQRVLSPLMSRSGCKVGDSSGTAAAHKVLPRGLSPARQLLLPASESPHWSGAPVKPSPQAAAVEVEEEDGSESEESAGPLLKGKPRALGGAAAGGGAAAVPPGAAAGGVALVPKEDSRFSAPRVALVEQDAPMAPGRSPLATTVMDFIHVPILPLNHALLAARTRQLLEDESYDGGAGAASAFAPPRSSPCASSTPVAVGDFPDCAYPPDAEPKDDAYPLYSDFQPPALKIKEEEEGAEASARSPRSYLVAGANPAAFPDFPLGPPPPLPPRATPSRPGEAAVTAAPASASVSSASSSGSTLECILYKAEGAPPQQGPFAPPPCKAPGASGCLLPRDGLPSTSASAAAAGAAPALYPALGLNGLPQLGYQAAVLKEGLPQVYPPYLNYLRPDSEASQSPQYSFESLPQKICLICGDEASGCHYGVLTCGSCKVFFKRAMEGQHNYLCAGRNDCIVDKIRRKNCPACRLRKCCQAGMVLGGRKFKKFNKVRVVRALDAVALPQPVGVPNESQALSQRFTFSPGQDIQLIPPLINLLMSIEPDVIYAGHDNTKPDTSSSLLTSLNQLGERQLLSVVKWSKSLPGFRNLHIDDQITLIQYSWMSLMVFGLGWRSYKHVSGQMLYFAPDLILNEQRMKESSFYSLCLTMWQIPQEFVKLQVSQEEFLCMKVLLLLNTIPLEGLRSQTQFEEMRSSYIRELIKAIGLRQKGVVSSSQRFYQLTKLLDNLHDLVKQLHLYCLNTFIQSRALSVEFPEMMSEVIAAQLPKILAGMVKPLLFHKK
Experiment: In vitro functional assay for progesterone receptor (PR) antagonists: inhibition of progesterone-induced alkaline phosphatase expression in T47D cells
Type: cell-based
Details: antagonist format, 5 nM progesterone, Ki calculated from IC50 with the Cheng-Prusoff equation
Text: 1.0 In vitro Functional Assay for Progesterone Receptor (PR) Antagonists, Agonists and Modulators
The assay for PR antagonism takes advantage of the extensively reported modulation of alkaline phosphatase (AP) expression in human breast T47D mammary carcinoma cells {Beck et al., D. P. (1993). The progesterone antagonist RU486 acquires agonist activity upon stimulation of cAMP signalling pathways. Proc Natl Acad Sci USA 90, 4441-4445; Fensome et al. (2002). New progesterone receptor antagonists: 3,3-disubstituted-5-aryloxindoles. Bioorg Med Chem Lett 12, 3487-3490; Zhang et al., (2002a). 6-Aryl-1,4-dihydro-benzo d1,3oxazin-2-ones: a novel class of potent, selective, and orally active nonsteroidal progesterone receptor antagonists. Journal of Medicinal Chemistry 45, 4379-4382; Zhang et al., (2003). Novel 6-aryl-1,4-dihydrobenzo d oxazine-2-thiones as potent, selective, and orally active nonsteroidal progesterone receptor agonists. Bioorganic & Medicinal Chemistry Letters 13, 1313-1316; Zhang et al., (2002b). Potent nonsteroidal progesterone receptor agonists: synthesis and SAR study of 6-aryl benzoxazines. Bioorganic & Medicinal Chemistry Letters 12, 787-790; Zhang, Z. et al., (2000). In vitro characterization of trimegestone: a new potent and selective progestin. Steroids 65, 637-643}. […] In the absence of progesterone any agonist activity is also observed as an induction of AP activity. By running the assay in two formats (+/−progesterone (P4)), compounds behaving as PR antagonists, agonists, partial agonists or modulators with mixed agonist/antagonist activity can be identified.
Briefly, T47D cells are grown by propagating in DMEM with phenol red+10% FCS+2 mM Glutamine at 37° C./5% CO2. At 70-80% confluence, the media is exchanged for phenol red free DMEM+5% CS-FCS (Assay media). Cells are incubated overnight in assay media then harvested and frozen in assay media containing 10% DMSO at 1.5e7 cells/mL in 2 mL aliquots using a Planer and immediately stored in liquid nitrogen. Vials are removed from liquid nitrogen storage and immediately thawed in a water bath at 37° C. The cell suspension is added dropwise to 20 mL of assay media, then the tube centrifuged at 1000 rpm for 4 minutes, the supernatant is discarded and the pellet re-suspended in 20 mL assay media. T47D cells are then plated at 8750 cells/well in 35 μL assay media in sufficient white solid 384 well TC plates for the assay. For the agonist format assay a further 10 μL of assay media is added to each well. These plates are then cultured for 3-6 hours at 37° C./5% CO2 before compound addition.
Test substances are prepared by in 100% DMSO, half log concentrations from 4 mM in 384 well plates 5 μL/well (referred to here as ‘grandmother plates’). Progesterone is 100 μM made up in ethanol and PBS (i.e. add 1 mL ethanol to progesterone initially to help dissolving) and stored in 0.5-1 mL aliquots at −20° C.
Using a multidrop (Thermolabsystems), 60 μL/well of buffer is added to a 384 well plate—this will be the ‘mother plate’. _Add 45 μL well buffer to grandmother plate using the multidrop (=400 μM 10% DMSO dilution). Mixed and spun to remove air bubbles. • 20 μL is taken from the grandmother plate (400 μM 10% DMSO) and added to the mother plate (=100 μM 2.5% DMSO). Mixed and spun to remove air bubbles Preparation of Max/Min:
Antagonist Min: (Checker Pattern on Plate Map) 1 μM RU-486 (FAC 0.1 μM) • 50 μL of 0.2 mM RU-486 • 10 mL Diluent Addition of Test Substance to Cell Plates • The PlateMate Plus was used to add 5 μL MAX/MIN to cell plates • Then 5 μL test substances are added from the mother plate (after removing max/min PlateMate tips: columns 1 and 24)
Addition of Agonist (5 nM Progesterone FAC) for Antagonist Format Only
25 nM progesterone in assay media is prepared from 100 μM stock (12.5 μL progesterone/50 mL media), from which 10 μL per well is transferred to the assay plate using the PlateMate Plus (already containing cells & compound). […]

SMILES | Ki
CC(C)C(=O)N1CC[C@@H](NC(=O)c2c(C3CC3)c(-c3ccc(C#N)cc3)nn2C(C)C)C1 [Example 11, 3-(4-Cyanophenyl)-4-cyclopropyl-N-[(3R)-1-isobutyrylpyrrolidin-3-yl]-1-isopropyl-1H-pyrazole-5-carboxamide] | 18.6 nM
CC(C)n1nc(-c2ccc(C#N)cc2)c(C2CC2)c1C(=O)N[C@@H]1CCN(S(C)(=O)=O)C1 [Example 13, 3-(4-Cyanophenyl)-4-cyclopropyl-1-isopropyl-N-[(3R)-1-(methylsulfonyl)pyrrolin-3-yl]-1H-pyrazole-5-carboxamide] | 34.8 nM
CC(C)C(=O)N1CC[C@H](NC(=O)c2c(C3CC3)c(-c3ccc(C#N)cc3)nn2C(C)C)C1 [Example 14, 3-(4-Cyanophenyl)-4-cyclopropyl-N-[(3S)-1-isobutyrylpyrrolidin-3-yl]-1-isopropyl-1H-pyrazole-5-carboxamide] | 302 nM
CCC(=O)N1CC[C@H](NC(=O)c2c(C3CC3)c(-c3ccc(C#N)cc3)nn2C(C)C)C1 [Example 15, 3-(4-Cyanophenyl)-4-cyclopropyl-1-isopropyl-N-[(3S)-1-propionylpyrrolidin-3-yl]-1H-pyrazole-5-carboxamide] | 280 nM
CC(C)C(=O)N1CC(NC(=O)c2c(C3CC3)c(-c3ccc(C#N)cc3)nn2C(C)C)C1 [Example 16, 3-(4-Cyanophenyl)-4-cyclopropyl-N-(1-isobutyrylazetidin-3-yl)-1-isopropyl-1H-pyrazole-5-carboxamide] | 42.8 nM
CCC(=O)N1CC(NC(=O)c2c(C3CC3)c(-c3ccc(C#N)cc3)nn2C(C)C)C1 [Example 17, 3-(4-Cyanophenyl)-4-cyclopropyl-1-isopropyl-N-(1-propionylazetidin-3-yl)-1H-pyrazole-5-carboxamide] | 42.2 nM
CC(C)n1nc(-c2ccc(C#N)cc2)c(C2CC2)c1C(=O)NC1CN(S(C)(=O)=O)C1 [Example 18, 3-(4-Cyanophenyl)-4-cyclopropyl-1-isopropyl-N-[1-(methylsulfonyl)azetidin-3-yl]-1H-pyrazole-5-carboxamide] | 38.2 nM
CC(=O)N1CC(NC(=O)c2c(C3CC3)c(-c3ccc(C#N)cc3)nn2C(C)C)C1 [Example 19, N-(1-Acetylazetidin-3-yl)-3-(4-cyanophenyl)-4-cyclopropyl-1-isopropyl-1H-pyrazole-5-carboxamide] | 51.4 nM
CCCNC(=O)c1c(C2CC2)c(-c2ccc(C#N)cc2)nn1C(C)C [Example 20, 3-(4-Cyanophenyl)-4-cyclopropyl-1-isopropyl-N-propyl-1H-pyrazole-5-carboxamide] | 3.78 nM
COCCCNC(=O)c1c(C2CC2)c(-c2ccc(C#N)cc2)nn1C(C)C [Example 21, 3-(4-Cyanophenyl)-4-cyclopropyl-1-isopropyl-N-(3-methoxypropyl)-1H-pyrazole-5-carboxamide] | 8.27 nM
CC(C)n1nc(-c2ccc(C#N)cc2)c(C2CC2)c1C(=O)NCCC(F)(F)F [Example 22, 3-(4-Cyanophenyl)-4-cyclopropyl-1-isopropyl-N-(3,3,3-trifluoropropyl)-1H-pyrazole-5-carboxamide] | 6.67 nM
CC(C)n1nc(-c2ccc(C#N)cc2)c(C2CC2)c1C(=O)NCc1ccncn1 [Example 23, 3-(4-Cyanophenyl)-4-cyclopropyl-1-isopropyl-N-(pyrimidin-4-ylmethyl)-1H-pyrazole-5-carboxamide] | 10.2 nM
CC(C)n1nc(-c2ccc(C#N)cc2)c(C2CC2)c1C(=O)N[C@H]1CCOC1=O [Example 24, 3-(4-Cyanophenyl)-4-cyclopropyl-1-isopropyl-N-[(3S)-2-oxotetrahydrofuran-3-yl]-1H-pyrazole-5-carboxamide] | 19.4 nM
CNC(=O)CNC(=O)c1c(C2CC2)c(-c2ccc(C#N)cc2)nn1C(C)C [Example 25, 3-(4-Cyanophenyl)-4-cyclopropyl-1-isopropyl-N-[2-(methylamino)-2-oxoethyl]-1H-pyrazole-5-carboxamide] | 24.5 nM
CC(C)n1nc(-c2ccc(C#N)cc2)c(C2CC2)c1C(=O)NCCCN1CCCC1=O [Example 26, 3-(4-Cyanophenyl)-4-cyclopropyl-1-isopropyl-N-[3-(2-oxopyrrolidin-1-yl)propyl]-1H-pyrazole-5-carboxamide] | 86.1 nM
COC(=O)C(C)(C)NC(=O)c1c(C2CC2)c(-c2ccc(C#N)cc2)nn1C(C)C [Example 27] | 161 nM
CC(C)n1nc(-c2ccc(C#N)cc2)c(C2CC2)c1C(=O)NCCN [Example 28, N-(2-Aminoethyl)-3-(4-cyanophenyl)-4-cyclopropyl-1-isopropyl-1H-pyrazole-5-carboxamide] | 171 nM
CC(C)n1nc(-c2ccc(C#N)cc2)c(C2CC2)c1C(=O)NCC(C)(C)N [Example 29, N-(2-amino-2-methylpropyl)-3-(4-cyanophenyl)-4-cyclopropyl-1-isopropyl-1H-pyrazole-5-carboxamide] | 235 nM
CC(C)n1nc(-c2ccc(C#N)cc2)c(C2CC2)c1C(=O)NCc1cnn(C)c1 [Example 30, 3-(4-Cyanophenyl)-4-cyclopropyl-1-isopropyl-N-[(1-methyl-1H-pyrazol-4-yl)methyl]-1H-pyrazole-5-carboxamide] | 30.9 nM
CC(C)n1nc(-c2ccc(C#N)cc2)c(C2CC2)c1C(=O)N[C@@H]1CC[C@H](O)C1 [Example 31, 3-(4-Cyanophenyl)-4-cyclopropyl-N-[(1R,3S)-3-hydroxycyclopentyl]-1-isopropyl-1H-pyrazole-5-carboxamide] | 36.3 nM
CC(C)n1nc(-c2ccc(C#N)cc2)c(C2CC2)c1C(=O)N[C@H]1C[C@@H](O)C1 [Example 32, 3-(4-Cyanophenyl)-4-cyclopropyl-N-(cis-3-hydroxycyclobutyl)-1-isopropyl-1H-pyrazole-5-carboxamide] | 34.6 nM
CC[C@H](C)NC(=O)c1c(C2CC2)c(-c2ccc(C#N)cc2)nn1C(C)C [Example 33, 3-(4-Cyanophenyl)-4-cyclopropyl-1-isopropyl-N-[(1S)-1-methylpropyl]-1H-pyrazole-5-carboxamide] | 7.11 nM
